Values joined by “and” are separate entries in the source; they are usually repeats but may differ in a detail not shown here. Identical values can stand only once. Toxic doses and inconclusive results are not listed.

Consider 18 compounds from PubChem BioAssay AID328 (DTP/NCI, 2004).

The experiment deals with BDF1 mice, P388 leukemia ip, median survival T/C. Nature of the experiment: NCI In Vivo Anticancer Drug Screen. Data for tumor model P388 Leukemia (intraperitoneal) in B6D2F1 (BDF1) mice. The conditions noted are these: endpoint: median survival time, higher = longer survival. A digest of the protocol:
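Vehicle-dosed animals serve as the reference; survival of compound-dosed, tumour-implanted mice is divided by it.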

The mark [1] stands for this setting: dose: 50.0 mg/kg/injection, schedule: Q04DX003 (ip), vehicle: saline with Tween-80.
Setting [2] is: dose: 100.0 mg/kg/injection, schedule: Q04DX003 (ip), vehicle: saline with Tween-80.
[3] abbreviates: dose: 200.0 mg/kg/injection, schedule: Q04DX003 (ip), vehicle: saline with Tween-80.
[4] abbreviates: dose: 400.0 mg/kg/injection, schedule: Q04DX003 (ip), vehicle: saline with Tween-80.
[5] abbreviates: dose: 25.0 mg/kg/injection, schedule: Q04DX003 (ip), vehicle: saline with Tween-80.
Setting [6] is: dose: 50.0 mg/kg/injection, schedule: Q01DX009 (ip), vehicle: saline with Tween-80.
[7] abbreviates: dose: 50.0 mg/kg/injection, schedule: Q04DX003 (ip), vehicle: Klucel (hydroxypropylcellulose) (HPC).
Setting [8] is: dose: 100.0 mg/kg/injection, schedule: Q04DX003 (ip), vehicle: Klucel (hydroxypropylcellulose) (HPC).
[9] abbreviates: dose: 200.0 mg/kg/injection, schedule: Q04DX003 (ip), vehicle: Klucel (hydroxypropylcellulose) (HPC).
Where [10] appears, read: dose: 100.0 mg/kg/injection, schedule: Q01DX009 (ip), vehicle: saline with Tween-80.
The mark [11] stands for this setting: dose: 200.0 mg/kg/injection, schedule: Q01DX009 (ip), vehicle: saline with Tween-80.
[12] abbreviates: dose: 400.0 mg/kg/injection, schedule: Q01DX009 (ip), vehicle: saline with Tween-80.
Setting [13] is: dose: 400.0 mg/kg/injection, schedule: Q04DX003 (ip), vehicle: Klucel (hydroxypropylcellulose) (HPC).

For `CN(C)c1ccc(/C=C/c2nccc3ccccc23)cc1`, the T/C was 114 % of control (dose: 0.78 mg/kg/injection, schedule: Q01DX009 (ip), vehicle: saline with Tween-80); 112 % of control (dose: 1.56 mg/kg/injection, schedule: Q01DX009 (ip), vehicle: saline with Tween-80); 102 % of control (dose: 3.13 mg/kg/injection, schedule: Q01DX009 (ip), vehicle: saline with Tween-80); 107 % of control and 110 % of control (dose: 6.25 mg/kg/injection, schedule: Q01DX009 (ip), vehicle: saline with Tween-80).
Turning to `Cc1oc(-c2ccccc2)nc1C(C)(O)c1ccccc1` (stereo not given), the T/C is, setting by setting: (dose: 100.0 mg/kg/injection, schedule: Q04DX002 (ip), vehicle: saline with Tween-80) 118 % of control; (dose: 200.0 mg/kg/injection, schedule: Q04DX002 (ip), vehicle: saline with Tween-80) 103 % of control; (dose: 400.0 mg/kg/injection, schedule: Q04DX002 (ip), vehicle: saline with Tween-80) 112 % of control.
Regarding `NC(=O)N/C=C1\CCCOC1=O`, the T/C runs as follows: under setting [1], 111 % of control; under setting [2], 101 % of control; under setting [3], 104 % of control; under setting [4], 109 % of control.
With `Clc1nc2nc[nH]c2nc1Cl`, the T/C was 100 % of control (dose: 12.5 mg/kg/injection, schedule: Q04DX003 (ip), vehicle: saline with Tween-80); 170 % of control (dose: 25.0 mg/kg/injection, schedule: Q01DX009 (ip), vehicle: saline with Tween-80); 100 % of control under setting [5]; 95 % of control under setting [6]; 90 % of control under setting [1]; 95 % of control under setting [2].
With `CCCOc1ccc(-c2nc(-c3ccc(N=Cc4ccc(N(CCOS(C)(=O)=O)CCOS(C)(=O)=O)cc4C)cc3)cs2)cc1`, the T/C under setting [5] is 156 % of control, the T/C under setting [1] is 175 % of control and the T/C under setting [2] is 166 % of control.
Turning to `COc1ccc2c(c1)/C(=C/CCN(C)C)c1ccccc1S2`, the T/C (dose: 12.5 mg/kg/injection, schedule: Q01DX009 (ip), vehicle: saline) was 109 % of control; the T/C (dose: 16.5 mg/kg/injection, schedule: Q01DX009 (ip), vehicle: saline) was 118 % of control; the T/C (dose: 37.5 mg/kg/injection, schedule: Q01DX009 (ip), vehicle: saline) was 95 % of control; the T/C (dose: 50.0 mg/kg/injection, schedule: Q01DX009 (ip), vehicle: saline) was 118 % of control.
In the case of `COC(=O)/C=C/c1cccnc1`, the T/C was 100 % of control (dose: 25.0 mg/kg/injection, schedule: Q04DX003 (ip), vehicle: Klucel (hydroxypropylcellulose) (HPC)); 90 % of control under setting [7]; 95 % of control under setting [8]; 90 % of control under setting [9].
Take `CCOC(=O)c1cnn(C(N)=O)c1N`: the T/C is, setting by setting: under setting [10], 115 % of control; under setting [2], 110 % of control; under setting [11], 90 % of control; under setting [3], 115 % of control; under setting [12], 109 % of control and 115 % of control; under setting [4], 115 % of control.
As for `CCCC[N+](CCCC)(CCCC)CCCC.Cc1ccc([SH2+])c([SH2+])c1.Cc1ccc([SH2+])c([SH2+])c1.[Ni+3]`, the T/C reads like this: (dose: 100.0 mg/kg/injection, schedule: Q01DX001 (ip), vehicle: other) 112 % of control; under setting [8], 109 % of control; (dose: 100.0 mg/kg/injection, schedule: Q04DX003 (ip), vehicle: saline) 115 % of control; (dose: 200.0 mg/kg/injection, schedule: Q01DX001 (ip), vehicle: other) 112 % of control; under setting [9], 118 % of control; (dose: 200.0 mg/kg/injection, schedule: Q04DX003 (ip), vehicle: saline) 115 % of control. Further, the T/C (dose: 265.0 mg/kg/injection, schedule: Q04DX003 (ip), vehicle: Klucel (hydroxypropylcellulose) (HPC)) was 116 % of control; the T/C (dose: 400.0 mg/kg/injection, schedule: Q01DX001 (ip), vehicle: other) was 112 % of control; the T/C under setting [13] was 112 % of control.
As to `CCC(=O)NC1=C(N2CC2)C(=O)C(NC(=O)CC)=C(N2CC2)C1=O`, the T/C reads like this: (dose: 1.0 mg/kg/injection, schedule: Q01DX009 (ip), vehicle: saline) 171 % of control and 185 % of control; (dose: 2.0 mg/kg/injection, schedule: Q01DX009 (ip), vehicle: saline) 225 % of control and 228 % of control; (dose: 4.0 mg/kg/injection, schedule: Q01DX009 (ip), vehicle: saline) 90 % of control and 119 % of control.
As to `C=C(C)[C@H]1Cc2c(ccc3c2O[C@@H]2COc4cc(OC)c(OC)cc4[C@@H]2C3=O)O1`, the T/C was 109 % of control (dose: 4.0 mg/kg/injection, schedule: Q01DX010 (ip), vehicle: saline); 95 % of control (dose: 10.0 mg/kg/injection, schedule: Q01DX009 (ip), vehicle: saline); 155 % of control (dose: 20.0 mg/kg/injection, schedule: Q01DX009 (ip), vehicle: saline); 120 % of control (dose: 40.0 mg/kg/injection, schedule: Q01DX009 (ip), vehicle: saline).
In the case of `CN(C)c1ccc(/C=C\c2ccnc3c([N+](=O)[O-])cccc23)cc1`, the T/C is, setting by setting: under setting [6], 115 % of control; under setting [10], 97 % of control; under setting [11], 92 % of control.
`CNCCNC`: the T/C was 100 % of control (dose: 50.0 mg/kg/injection, schedule: Q01DX005 (ip), vehicle: saline); 98 % of control (dose: 100.0 mg/kg/injection, schedule: Q01DX005 (ip), vehicle: saline); 95 % of control (dose: 200.0 mg/kg/injection, schedule: Q01DX005 (ip), vehicle: saline).
Take `O=[N+]([O-])c1cccc(CS(=O)(=O)c2ccccc2)c1-c1c(CS(=O)(=O)c2ccccc2)cccc1[N+](=O)[O-]`: the T/C (dose: 100.0 mg/kg/injection, schedule: Q04DX003 (ip), vehicle: saline sonified) was 95 % of control; the T/C (dose: 200.0 mg/kg/injection, schedule: Q04DX003 (ip), vehicle: saline sonified) is 100 % of control; the T/C (dose: 400.0 mg/kg/injection, schedule: Q04DX003 (ip), vehicle: saline sonified) is 86 % of control.
Regarding `O=C(O)CCCc1ccc(N(CCCl)CCCl)cc1`, the T/C is 123 % of control (dose: 0.25 mg/kg/injection, schedule: Q01DX009 (ip), vehicle: Klucel (hydroxypropylcellulose) (HPC)); 105 % of control (dose: 0.5 mg/kg/injection, schedule: Q01DX009 (ip), vehicle: Klucel (hydroxypropylcellulose) (HPC)); 171 % of control (dose: 1.5 mg/kg/injection, schedule: Q01DX009 (ip), vehicle: Klucel (hydroxypropylcellulose) (HPC)); 165 % of control (dose: 2.0 mg/kg/injection, schedule: Q01DX009 (ip), vehicle: Klucel (hydroxypropylcellulose) (HPC)); 99 % of control and 100 % of control (dose: 3.0 mg/kg/injection, schedule: Q01DX009 (ip), vehicle: saline); 100 % of control (dose: 3.13 mg/kg/injection, schedule: Q01DX010 (ip), vehicle: saline). Moreover, the T/C is 105 % of control (dose: 6.0 mg/kg/injection, schedule: Q01DX009 (ip), vehicle: saline); 122 % of control (dose: 12.0 mg/kg/injection, schedule: Q01DX009 (ip), vehicle: saline); 172 % of control (dose: 12.5 mg/kg/injection, schedule: Q01DX010 (ip), vehicle: saline); 88 % of control (dose: 24.0 mg/kg/injection, schedule: Q01DX009 (ip), vehicle: saline).
As to `COc1cccc(/C=N\NC(=O)C(C)SC(C)C(=O)N/N=C/c2cccc(OC)c2)c1` (stereo not given), the T/C is 100 % of control under setting [10], 104 % of control under setting [11] and 104 % of control under setting [12].
`O=C(NO)c1ccccc1`: the T/C was 105 % of control and 116 % of control (dose: 50.0 mg/kg/injection, schedule: Q01DX009 (ip), vehicle: Klucel (hydroxypropylcellulose) (HPC)); 103 % of control and 116 % of control under setting [7]; 91 % of control and 104 % of control and 105 % of control (dose: 100.0 mg/kg/injection, schedule: Q01DX009 (ip), vehicle: Klucel (hydroxypropylcellulose) (HPC)); 106 % of control and 108 % of control and 113 % of control under setting [8]; 107 % of control and 109 % of control (dose: 200.0 mg/kg/injection, schedule: Q01DX009 (ip), vehicle: Klucel (hydroxypropylcellulose) (HPC)); 104 % of control (2×) and 108 % of control under setting [9]. Further, the T/C under setting [13] is 100 % of control and 116 % of control.
In the case of `BrC1CC(Br)c2c1c1c(c3c2C(Br)CC3Br)C(Br)CC1Br` (stereo not given), the T/C under setting [11] was 90 % of control.
